How the values were obtained:
Assay type in all cases: in vivo
[1] = tested on: pigweed (Amaranthus retroflexus); assay: Test A pre-/postemergence plant response
From the text: (§1) Seeds of barnyardgrass (Echinochloa crus-galli), large crabgrass (Digitaria sanguinalis), giant foxtail (Setaria faberii), morningglory (Ipomoea spp.), pigweed (Amaranthus retroflexus), velvetleaf (Abutilon theophrasti), wheat (Triticum aestivum) and corn (Zea mays) were planted into a blend of loam soil and sand and treated preemergence with a directed soil spray using test chemicals formulated in a non-phytotoxic solvent mixture which included a surfactant. At the same time these species were also treated with postemergence applications of test compounds formulated in the same manner.
(§2) Plants ranged in height from two to ten cm and were in the one- to two-leaf stage for the postemergence treatment. Treated plants and untreated controls were maintained in a greenhouse for approximately ten days, after which time all treated plants were compared to untreated controls and visually evaluated for injury. Plant response ratings, summarized in Table A, are based on a 0 to 100 scale where 0 is no effect and 100 is complete control. A dash (-) response means no test result.

[2] = tested on: giant foxtail (Setaria faberii); assay: Test A pre-/postemergence plant response
From the text: as §1, §2

[3] = tested on: velvetleaf (Abutilon theophrasti); assay: Test A pre-/postemergence plant response
From the text: as §1, §2

[4] = tested on: morningglory (Ipomoea spp.); assay: Test A pre-/postemergence plant response
From the text: as §1, §2

[5] = tested on: large crabgrass (Digitaria sanguinalis); assay: Test A pre-/postemergence plant response
From the text: as §1, §2

[6] = tested on: wheat (Triticum aestivum); assay: Test A pre-/postemergence plant response
From the text: as §1, §2

[7] = tested on: corn (Zea mays); assay: Test A pre-/postemergence plant response
From the text: as §1, §2

[8] = tested on: barnyardgrass (Echinochloa crus-galli); assay: Test A pre-/postemergence plant response
From the text: as §1, §2

[9] = tested on: rice (Oryza sativa); assay: Test B flooded paddy test; details: for Plant response rating, Flood, Rice: 250 g ai/ha, flooded paddy test, visual rating on 0 to 100 scale (0 no effect, 100 complete control) after 13 to 15 days; for Plant response rating, Rice: Flood (flooded paddy test), 13 to 15 days; for Rice plant response rating: Flood, 31 g ai/ha, scale 0 to 100 (0 no effect, 100 complete control)
Outline: (§3)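 Post-flood paddy application: compounds are introduced into water 3 cm deep over the soil, reaching plants at the 2-leaf stage. The water level is maintained, and after 13–15 days under greenhouse conditions, response is judged by eye relative to controls, where 100 means complete control.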

[10] = tested on: ducksalad (Heteranthera limosa); assay: Test B flooded paddy test; details: for Plant response rating, Flood, Ducksalad: 250 g ai/ha, flooded paddy test, visual rating on 0 to 100 scale (0 no effect, 100 complete control) after 13 to 15 days; for Plant response rating, Ducksalad: Flood (flooded paddy test), 13 to 15 days; for Ducksalad plant response rating: Flood, 31 g ai/ha, scale 0 to 100 (0 no effect, 100 complete control)
Outline: as §3

[11] = tested on: umbrella sedge (Cyperus difformis); assay: Test B flooded paddy test; details: for Plant response rating, Flood, Sedge, Umbrella: 250 g ai/ha, flooded paddy test, visual rating on 0 to 100 scale (0 no effect, 100 complete control) after 13 to 15 days; for Plant response rating, Sedge, Umbrella: Flood (flooded paddy test), 13 to 15 days; for Sedge, Umbrella plant response rating: Flood, 31 g ai/ha, scale 0 to 100 (0 no effect, 100 complete control)
Outline: as §3

[12] = tested on: barnyardgrass (Echinochloa crus-galli); assay: Test B flooded paddy test; details: for Plant response rating, Flood, Barnyardgrass: 250 g ai/ha, flooded paddy test, visual rating on 0 to 100 scale (0 no effect, 100 complete control) after 13 to 15 days; for Plant response rating, Barnyardgrass: Flood (flooded paddy test), 13 to 15 days; for Barnyardgrass plant response rating: Flood, 31 g ai/ha, scale 0 to 100 (0 no effect, 100 complete control)
Outline: as §3

[13] = Postemergence, 125 g ai/ha, 0 to 100 scale where 0 is no effect and 100 is complete control
[14] = Postemergence, 500 g ai/ha, 0 to 100 scale, 0 = no effect, 100 = complete control, approx. ten days
[15] = Preemergence, 125 g ai/ha, 0 to 100 scale, 0 = no effect, 100 = complete control
[16] = Preemergence, 500 g ai/ha, visual injury, 0 to 100 scale (0 no effect, 100 complete control), approx. ten days
[17] = Preemergence, 500 g ai/ha, 0 to 100 scale, 0 = no effect, 100 = complete control
[18] = 62 g ai/ha, scale of 0 to 100 where 0 is no effect and 100 is complete control
[19] = 125 g ai/ha, scale 0 to 100, 0 is no effect, 100 is complete control

With `Cc1ccc(Cl)cc1-n1c(-c2cccc(Cl)c2)ncc(C(=O)C2=C(O)CCCC2=O)c1=O` [Compound 148] the “Plant response rating, Pigweed” value [1, 13] was 90, the “Plant response rating, Pigweed” value [1, 14] was 100 and the “Plant response rating, Pigweed” value [1, 15] was 0. For the same molecule, the “Plant response rating, Pigweed” value [1, 16] was 60, the “Plant response rating, Foxtail, Giant” value [2, 13] was 60 and the “Plant response rating, Foxtail, Giant” value [2, 14] was 90. For the same molecule, the “Plant response rating, Foxtail, Giant” value [2, 15] was 0, the “Plant response rating, Foxtail, Giant” value [2, 16] was 10 and the “Plant response rating, Velvetleaf” value [3, 13] was 100. For the same molecule, the “Plant response rating, Velvetleaf” value [3, 14] was 100, the “Plant response rating, Velvetleaf” value [3, 15] was 30 and the “Plant response rating, Velvetleaf” value [3, 17] was 80. For the same molecule, the “Plant response rating, Morningglory” value [4, 13] was 100, the “Plant response rating, Morningglory” value [4, 14] was 100 and the “Plant response rating, Morningglory” value [4, 15] was 0. For the same molecule, the “Plant response rating, Morningglory” value [4, 16] was 0, the “Plant response rating, Crabgrass, Large” value [5, 13] was 70 and the “Plant response rating, Crabgrass, Large” value [5, 14] was 90. For the same molecule, the “Plant response rating, Crabgrass, Large” value [5, 15] was 0, the “Plant response rating, Crabgrass, Large” value [5, 16] was 50 and the “Plant response rating, Wheat” value [6, 13] was 0. For the same molecule, the “Plant response rating, Wheat” value [6, 14] was 0, the “Plant response rating, Wheat” value [6, 15] was 0 and the “Plant response rating, Wheat” value [6, 17] was 0. For the same molecule, the “Plant response rating, Corn” value [7, 13] was 0, the “Plant response rating, Corn” value [7, 14] was 60 and the “Plant response rating, Corn” value [7, 15] was 0. The “Plant response rating, Corn” value [7, 16] was 0, the “Plant response rating, Barnyardgrass” value [8, 13] was 90 and the “Plant response rating, Barnyardgrass” value [8, 14] was 100. For the same molecule, the “Plant response rating, Barnyardgrass” value [8, 15] was 10, the “Plant response rating, Barnyardgrass” value [8, 16] was 30 and the “Plant response rating, Flood, Rice” value [9] was 50. The “Plant response rating, Rice” value [9, 18] was 10, the “Plant response rating, Rice” value [9, 19] was 20 and the “Rice plant response rating” value [9] was 20. The “Plant response rating, Flood, Ducksalad” value [10] was 100, the “Plant response rating, Ducksalad” value [10, 18] was 90 and the “Plant response rating, Ducksalad” value [10, 19] was 90. For the same molecule, the “Ducksalad plant response rating” value [10] was 90, the “Plant response rating, Flood, Sedge, Umbrella” value [11] was 95 and the “Plant response rating, Sedge, Umbrella” value [11, 18] was 80. The “Plant response rating, Sedge, Umbrella” value [11, 19] was 85, the “Sedge, Umbrella plant response rating” value [11] was 80 and the “Plant response rating, Flood, Barnyardgrass” value [12] was 50. For the same molecule, the “Plant response rating, Barnyardgrass” value [12, 18] was 0, the “Plant response rating, Barnyardgrass” value [12, 19] was 15 and the “Barnyardgrass plant response rating” value [12] was 0.
`COc1ccc(-n2c(-c3cccc(Cl)c3)ncc(C(=O)C3=C(O)CCCC3=O)c2=O)cc1` [Compound 151] was tested, and the “Plant response rating, Pigweed” value [1, 13] was 100, the “Plant response rating, Pigweed” value [1, 14] was 100 and the “Plant response rating, Pigweed” value [1, 15] was 50. The “Plant response rating, Pigweed” value [1, 16] was 70, the “Plant response rating, Foxtail, Giant” value [2, 13] was 20 and the “Plant response rating, Foxtail, Giant” value [2, 14] was 70. The “Plant response rating, Foxtail, Giant” value [2, 15] was 20, the “Plant response rating, Foxtail, Giant” value [2, 16] was 60 and the “Plant response rating, Velvetleaf” value [3, 13] was 100. The “Plant response rating, Velvetleaf” value [3, 14] was 100, the “Plant response rating, Velvetleaf” value [3, 15] was 50 and the “Plant response rating, Velvetleaf” value [3, 17] was 70. The “Plant response rating, Morningglory” value [4, 13] was 40, the “Plant response rating, Morningglory” value [4, 14] was 100 and the “Plant response rating, Morningglory” value [4, 16] was 30. The “Plant response rating, Crabgrass, Large” value [5, 13] was 30, the “Plant response rating, Crabgrass, Large” value [5, 14] was 70 and the “Plant response rating, Crabgrass, Large” value [5, 15] was 10. The “Plant response rating, Crabgrass, Large” value [5, 16] was 50, the “Plant response rating, Wheat” value [6, 13] was 0 and the “Plant response rating, Wheat” value [6, 14] was 20. For the same molecule, the “Plant response rating, Wheat” value [6, 15] was 0, the “Plant response rating, Wheat” value [6, 17] was 20 and the “Plant response rating, Corn” value [7, 13] was 0. The “Plant response rating, Corn” value [7, 14] was 10, the “Plant response rating, Corn” value [7, 15] was 0 and the “Plant response rating, Corn” value [7, 16] was 0. For the same molecule, the “Plant response rating, Barnyardgrass” value [8, 13] was 60, the “Plant response rating, Barnyardgrass” value [8, 14] was 90 and the “Plant response rating, Barnyardgrass” value [8, 15] was 20. For the same molecule, the “Plant response rating, Barnyardgrass” value [8, 16] was 100, the “Plant response rating, Flood, Rice” value [9] was 50 and the “Plant response rating, Rice” value [9, 18] was 0. The “Plant response rating, Rice” value [9, 19] was 15, the “Rice plant response rating” value [9] was 20 and the “Plant response rating, Flood, Ducksalad” value [10] was 100. For the same molecule, the “Plant response rating, Ducksalad” value [10, 18] was 80, the “Plant response rating, Ducksalad” value [10, 19] was 100 and the “Ducksalad plant response rating” value [10] was 80. The “Plant response rating, Flood, Sedge, Umbrella” value [11] was 100, the “Plant response rating, Sedge, Umbrella” value [11, 18] was 85 and the “Plant response rating, Sedge, Umbrella” value [11, 19] was 100. For the same molecule, the “Sedge, Umbrella plant response rating” value [11] was 85, the “Plant response rating, Flood, Barnyardgrass” value [12] was 55 and the “Plant response rating, Barnyardgrass” value [12, 18] was 15. For the same molecule, the “Plant response rating, Barnyardgrass” value [12, 19] was 30 and the “Barnyardgrass plant response rating” value [12] was 0.
